Target: T1, ZIKV NS3-Hel (Zika virus NS3 helicase) (Zika virus ZIKV/H. sapiens/FrenchPolynesia/10087PF/2013, UniProt A0A024B7W1)
T1 construct: helicase domain, residues 171-617 of NS3, cut from the genome polyprotein; N-terminal 6xHis-SUMO tag cleaved off
Assay: STD NMR titration; crystal structure also solved
Type: binding

T1 sequence (A0A024B7W1 1673-2119): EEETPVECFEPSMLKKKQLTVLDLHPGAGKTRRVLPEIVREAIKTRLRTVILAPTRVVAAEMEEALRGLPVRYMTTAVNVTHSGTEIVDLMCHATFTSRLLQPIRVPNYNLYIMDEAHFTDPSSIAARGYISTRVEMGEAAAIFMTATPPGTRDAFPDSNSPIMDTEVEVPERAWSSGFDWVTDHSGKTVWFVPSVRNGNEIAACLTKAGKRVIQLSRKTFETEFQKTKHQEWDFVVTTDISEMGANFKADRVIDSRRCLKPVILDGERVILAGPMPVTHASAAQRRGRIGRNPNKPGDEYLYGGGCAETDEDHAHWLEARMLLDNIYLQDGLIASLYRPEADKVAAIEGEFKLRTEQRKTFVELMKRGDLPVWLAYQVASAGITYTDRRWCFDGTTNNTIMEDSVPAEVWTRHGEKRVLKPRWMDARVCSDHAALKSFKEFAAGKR

Row | SMILES | Kd
1 | Nc1nc(N)c2[nH]cnc2n1 [compound 1, 2,6-di-aminopurine] | 2.8 ± 0.4 mM
2 | NC(=O)c1ccc(Cl)cc1Cl [compound 4, 2,4-dicholorobenzamide] | 5.1 ± 1.4 mM

— PMC6274715, “Discovery of Novel Druggable Sites on Zika Virus NS3 Helicase Using X-ray Crystallography-Based Fragment Screening” (International Journal of Molecular Sciences, 2018)
